Measurements reported in patent publication US6737383B1, “Herbicidal oxadiazolidines” (priority 1999, dated 2004).

Experiments:
[1] = test system: pigweed; assay: Test B pre/postemergence pigweed; type: in vivo, Amaranthus retroflexus
In short: (§1)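 Response is a visual 0-to-10 score relative to untreated plants, where 0 means no effect and 10 means complete control, taken twelve to sixteen days after application. Treatments went onto soil at planting and onto foliage of 1- to 4-leaf plants, using a surfactant-containing non-phytotoxic solvent.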

[2] = test system: corn; assay: Test B pre/postemergence corn; type: in vivo, Zea mays
In short: as §1

[3] = test system: duck salad; assay: Test B flood test duck salad; type: in vivo, Heteranthera limosa
In short: (§2)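 Plants were grown to the 2-leaf stage before treatment with test chemical, then held in a greenhouse for twelve to sixteen days. Injury was visually rated against untreated controls on a 0–10 scale, where 0 is no effect and 10 is complete control.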

[4] = test system: wheat; assay: Test B pre/postemergence wheat; type: in vivo, Triticum aestivum
In short: as §1

[5] = test system: surinam grass; assay: Test B pre/postemergence surinam grass; type: in vivo, Brachiaria decumbens
In short: as §1

[6] = test system: bamyardgrass; assay: Test B flood test barnyardgrass; type: in vivo, Echinochloa crus-galli
In short: as §2

[7] = test system: sugar beet; assay: Test B pre/postemergence sugar beet; type: in vivo, Beta vulgaris
In short: as §1

[8] = test system: crabgrass; assay: Test B pre/postemergence crabgrass; type: in vivo, Digitaria sanguinalis
In short: as §1

[9] = test system: velvetleaf; assay: Test B pre/postemergence velvetleaf; type: in vivo, Abutilon theophrasti
In short: as §1

[10] = test system: blackgrass; assay: Test B pre/postemergence blackgrass; type: in vivo, Alopecurus myosuroides
In short: as §1

[11] = test system: rape; assay: Test B pre/postemergence rape; type: in vivo, Brassica napus
In short: as §1

[12] = test system: soybean; assay: Test B pre/postemergence soybean; type: in vivo, Glycine max
In short: as §1

[13] = test system: morningglory; assay: Test B pre/postemergence morningglory; type: in vivo, Ipomoea hederacea
In short: as §1

[14] = test system: purple nutsedge; assay: Test B pre/postemergence purple nutsedge; type: in vivo, Cyperus rotundus
In short: as §1

[15] = test system: rice; assay: Test B flood test rice; type: in vivo, Oryza sativa
In short: as §2

[16] = test system: cocklebur; assay: Test B pre/postemergence cocklebur; type: in vivo, Xanthium strumarium
In short: as §1

[17] = test system: giant foxtail; assay: Test B pre/postemergence giant foxtail; type: in vivo, Setaria faberii
In short: as §1

[18] = test system: smallflower flatsedge; assay: Test B flood test smallflower flatsedge; type: in vivo, Cyperus difformis
In short: as §2

[19] = test system: wild oat; assay: Test B pre/postemergence wild oat; type: in vivo, Avena fatua
In short: as §1

[20] = test system: bedstraw; assay: Test B pre/postemergence bedstraw; type: in vivo, Galium aparine
In short: as §1

[21] = Postemergence, Rate 250 g/ha, scale 0 to 10, 0 is no effect, 10 is complete control
[22] = Postemergence, Rate 500 g/ha, scale of 0 to 10 where 0 is no effect and 10 is complete control
[23] = Preemergence, Rate 62 g/ha, scale 0 to 10 (0 no effect, 10 complete control)
[24] = Preemergence, Rate 125 g/ha, scale of 0 to 10 where 0 is no effect and 10 is complete control
[25] = Preemergence, Rate 250 g/ha, scale 0 to 10, 0 is no effect, 10 is complete control
[26] = Preemergence, Rate 500 g/ha, scale 0 to 10, 0 is no effect, 10 is complete control
[27] = Postemergence, Rate 125 g/ha, scale 0 to 10, 0 is no effect, 10 is complete control
[28] = Rate 62 g/ha, Postemergence, scale of 0 to 10 where 0 is no effect and 10 is complete control
[29] = Rate 62 g/ha, flood test species, Pre-emergence, visual evaluation after twelve to sixteen days
[30] = Rate 125 g/ha, under heading Pre-emergence, flood test species, visual evaluation after twelve to sixteen days
[31] = Rate 250 g/ha, Pre-emergence, flood-test species, scale 0 to 10, 0 is no effect, 10 is complete control
[32] = Preemergence, Rate 250 g/ha, scale of 0 to 10 where 0 is no effect and 10 is complete control

## CC(C)N(C(=O)n1oc(=O)n(C(C)C2CC2)c1=O)c1ccc(F)cc1 (stereo not drawn) [Compound 404]
[1]; [21]
  Plant response rating, Redroot pigweed: 5
[1]; [22]
  Redroot pigweed plant response rating: 7
[1]; [23]
  Plant response rating, Redroot pigweed: 2
[1]; [24]
  Plant response rating, Redroot pigweed: 6
[1]; [25]
  Redroot pigweed plant response rating: 10
[1]; [26]
  Redroot pigweed plant response rating: 10
[2]; [27]
  Plant response rating, Corn: 0
[2]; [21]
  Plant response rating, Corn: 0
[2]; [22]
  Corn plant response rating: 1
[2]; [23]
  Plant response rating, Corn: 0
[2]; [24]
  Plant response rating, Corn: 2
[2]; [25]
  Corn plant response rating: 2
[2]; [26]
  Corn plant response rating: 6
[2]; [28]
  Corn plant response rating: 0
[3]; [29]
  Plant response rating, Ducksalad (0 to 10 scale, 0 is no effect, 10 is complete control): 0
[3]; [30]
  Ducksalad plant response rating (0 to 10 scale, 0 is no effect, 10 is complete control): 1
[3]; [31]
  Ducksalad plant response rating: 5
[4]; [22]
  Wheat plant response rating: 3
[4]; [23]
  Plant response rating, Wheat: 0
[4]; [24]
  Plant response rating, Wheat: 2
[4]; [25]
  Wheat plant response rating: 4
[4]; [26]
  Wheat plant response rating: 5
[5]; [27]
  Plant response rating, B. signalgrass: 2
[5]; [22]
  B. signalgrass plant response rating: 6
[5]; [23]
  Plant response rating, B. signalgrass: 2
[5]; [24]
  Plant response rating, B. signalgrass: 4
[5]; [32]
  B. signalgrass plant response rating: 8
[5]; Preemergence, Rate 500 g/ha, scale of 0 to 10 where 0 is no effect and 10 is complete control
  B. signalgrass plant response rating: 10
[5]; [28]
  B. signalgrass plant response rating: 2
[6]; [29]
  Plant response rating, Barnyardgrass (0 to 10 scale, 0 is no effect, 10 is complete control): 4
[6]; [30]
  Barnyardgrass plant response rating (0 to 10 scale, 0 is no effect, 10 is complete control): 9
[6]; [31]
  Barnyardgrass plant response rating: 9
[7]; [21]
  Plant response rating, Sugarbeets: 1
[7]; [22]
  Sugarbeets plant response rating: 4
[7]; [23]
  Plant response rating, Sugarbeets: 0
[7]; [24]
  Plant response rating, Sugarbeets: 3
[7]; [25]
  Sugarbeets plant response rating: 6
[7]; [26]
  Sugarbeets plant response rating: 8
[8]; [27]
  Plant response rating, Crabgrass: 3
[8]; [21]
  Plant response rating, Crabgrass: 5
[8]; [22]
  Crabgrass plant response rating: 8
[8]; [23]
  Plant response rating, Crabgrass: 10
[8]; [24]
  Plant response rating, Crabgrass: 10
[8]; [25]
  Crabgrass plant response rating: 10
[8]; [26]
  Crabgrass plant response rating: 10
[8]; [28]
  Crabgrass plant response rating: 0
[9]; [21]
  Plant response rating, Velvetleaf: 0
[9]; [22]
  Velvetleaf plant response rating: 6
[9]; [23]
  Plant response rating, Velvetleaf: 0
[9]; [24]
  Plant response rating, Velvetleaf: 1
[9]; [25]
  Velvetleaf plant response rating: 5
[9]; [26]
  Velvetleaf plant response rating: 7
[10]; [21]
  Plant response rating, Blackgrass: 10
[10]; [22]
  Blackgrass plant response rating: 10
[10]; [23]
  Plant response rating, Blackgrass: 6
[10]; [24]
  Plant response rating, Blackgrass: 7
[10]; [32]
  Blackgrass plant response rating: 9
[10]; [26]
  Blackgrass plant response rating: 10
[10]; [28]
  Blackgrass plant response rating: 5
[11]; [21]
  Plant response rating, Rape: 4
[11]; [22]
  Rape plant response rating: 8
[11]; [23]
  Plant response rating, Rape: 1
[11]; [24]
  Plant response rating, Rape: 4
[11]; [25]
  Rape plant response rating: 7
[11]; [26]
  Rape plant response rating: 8
[12]; [21]
  Plant response rating, Soybean: 6
[12]; [22]
  Soybean plant response rating: 7
[12]; [23]
  Plant response rating, Soybean: 0
[12]; [24]
  Plant response rating, Soybean: 0
[12]; [25]
  Soybean plant response rating: 0
[12]; [26]
  Soybean plant response rating: 3
[13]; [21]
  Plant response rating, Morningglory: 7
[13]; [22]
  Morningglory plant response rating: 10
[13]; [23]
  Plant response rating, Morningglory: 0
[13]; [24]
  Plant response rating, Morningglory: 2
[13]; [25]
  Morningglory plant response rating: 4
[13]; [26]
  Morningglory plant response rating: 5
[14]; [21]
  Plant response rating, Nutsedge: 0
[14]; [22]
  Nutsedge plant response rating: 0
[14]; [23]
  Plant response rating, Nutsedge: 0
[14]; [24]
  Plant response rating, Nutsedge: 0
[14]; [25]
  Nutsedge plant response rating: 0
[14]; [26]
  Nutsedge plant response rating: 0
[15]; [29]
  Plant response rating, Rice (0 to 10 scale, 0 is no effect, 10 is complete control): 0
[15]; [30]
  Rice plant response rating (0 to 10 scale, 0 is no effect, 10 is complete control): 0
[15]; [31]
  Rice plant response rating: 7
[16]; [27]
  Plant response rating, Cocklebur: 2
[16]; [21]
  Plant response rating, Cocklebur: 2
[16]; [22]
  Cocklebur plant response rating: 3
[16]; [23]
  Plant response rating, Cocklebur: 0
[16]; [24]
  Plant response rating, Cocklebur: 0
[16]; [25]
  Cocklebur plant response rating: 0
[16]; [26]
  Cocklebur plant response rating: 0
[16]; [28]
  Cocklebur plant response rating: 0
[17]; [27]
  Plant response rating, Giant foxtail: 9
[17]; [21]
  Plant response rating, Giant foxtail: 9
[17]; [22]
  Giant foxtail plant response rating: 9
[17]; [23]
  Plant response rating, Giant foxtail: 10
[17]; [24]
  Plant response rating, Giant foxtail: 10
[17]; [25]
  Giant foxtail plant response rating: 10
[17]; [26]
  Giant foxtail plant response rating: 10
[17]; [28]
  Giant foxtail plant response rating: 5
[18]; [29]
  Plant response rating, S. Flatsedge (0 to 10 scale, 0 is no effect, 10 is complete control): 0
[18]; [30]
  S. Flatsedge plant response rating (0 to 10 scale, 0 is no effect, 10 is complete control): 0
[18]; [31]
  S. Flatsedge plant response rating: 8
[19]; [22]
  Wild oats plant response rating: 8
[19]; [23]
  Plant response rating, Wild oats: 3
[19]; [24]
  Plant response rating, Wild oats: 8
[19]; [25]
  Wild oats plant response rating: 10
[19]; [26]
  Wild oats plant response rating: 10
[20]; [21]
  Plant response rating, Bedstraw: 8
[20]; [23]
  Plant response rating, Bedstraw: 0
[20]; [32]
  Bedstraw plant response rating: 10
[20]; [26]
  Bedstraw plant response rating: 10
